# Positions count from the first letter of the chain named. Entries after “also recorded” stand apart in the source; their conditions may differ.
# Tests used:
# Type in all cases: cell-based
# [1] = target: T1, T877A mutant of full-length AR (Homo sapiens, UniProt P10275, T878A); experiment: AR T877A mutant PSA-luc reporter assay in PC3 cells; conditions: 24 h; for inhibition of DHT-induced transactivation of T877A mutant AR (PSA-luc): 10 nM DHT; for agonism of AR T877A mutant (PSA-luc): absence of DHT
# T1 sequence (P10275 1-920 T878A): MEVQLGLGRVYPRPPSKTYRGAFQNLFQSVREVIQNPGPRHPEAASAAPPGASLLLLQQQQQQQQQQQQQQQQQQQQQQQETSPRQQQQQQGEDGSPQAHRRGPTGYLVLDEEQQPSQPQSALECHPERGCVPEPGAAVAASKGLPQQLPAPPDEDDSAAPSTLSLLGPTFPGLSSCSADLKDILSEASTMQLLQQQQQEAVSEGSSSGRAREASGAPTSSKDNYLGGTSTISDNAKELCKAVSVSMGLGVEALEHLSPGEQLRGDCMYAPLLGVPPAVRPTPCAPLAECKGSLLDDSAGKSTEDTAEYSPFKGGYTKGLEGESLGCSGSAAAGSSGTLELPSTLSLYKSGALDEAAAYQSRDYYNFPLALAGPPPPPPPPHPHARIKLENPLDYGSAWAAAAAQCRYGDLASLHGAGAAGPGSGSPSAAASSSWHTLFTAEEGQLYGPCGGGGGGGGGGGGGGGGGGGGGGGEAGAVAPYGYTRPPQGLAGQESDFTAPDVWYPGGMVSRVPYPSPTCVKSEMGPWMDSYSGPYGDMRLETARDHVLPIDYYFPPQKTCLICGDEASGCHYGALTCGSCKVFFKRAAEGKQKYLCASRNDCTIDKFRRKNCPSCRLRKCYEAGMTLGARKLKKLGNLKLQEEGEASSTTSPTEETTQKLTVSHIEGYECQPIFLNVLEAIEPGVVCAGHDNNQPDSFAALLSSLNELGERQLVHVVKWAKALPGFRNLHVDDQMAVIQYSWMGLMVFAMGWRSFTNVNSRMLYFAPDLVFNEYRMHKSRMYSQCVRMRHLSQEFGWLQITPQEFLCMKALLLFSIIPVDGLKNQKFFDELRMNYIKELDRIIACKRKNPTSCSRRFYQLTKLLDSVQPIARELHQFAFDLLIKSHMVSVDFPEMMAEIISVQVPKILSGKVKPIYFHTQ
# Description: ENZ, enzalutamide; Bic, bicalutamide; OHF, hydroxyflutamide.
# [2] = target: T2, H874Y mutant of full-length AR (Homo sapiens, UniProt P10275, H875Y); experiment: AR H874Y mutant PSA-luc reporter assay in PC3 cells; conditions: for inhibition of DHT-induced transactivation of H874Y mutant AR (PSA-luc): 10 nM DHT, PC3 cells, 24 h
# T2 sequence (P10275 1-920 H875Y): T1 sequence (P10275 1-920 T878A) with H875Y, A878T
# [3] = target: T3, Progesterone receptor (PR) (Homo sapiens, UniProt P06401); experiment: PR MMTV-luc reporter assay in PC3 cells; design: interference with transcriptional activity of PR: dose or concentration left out as unconfirmed; conditions: for effect on PR transcriptional activation (MMTV-luc): 10 nM R5020, PC3 cells, 24 h
# T3 construct: expressed in transfected cells; host or cells: PC3
# T3 sequence (P06401 1-933): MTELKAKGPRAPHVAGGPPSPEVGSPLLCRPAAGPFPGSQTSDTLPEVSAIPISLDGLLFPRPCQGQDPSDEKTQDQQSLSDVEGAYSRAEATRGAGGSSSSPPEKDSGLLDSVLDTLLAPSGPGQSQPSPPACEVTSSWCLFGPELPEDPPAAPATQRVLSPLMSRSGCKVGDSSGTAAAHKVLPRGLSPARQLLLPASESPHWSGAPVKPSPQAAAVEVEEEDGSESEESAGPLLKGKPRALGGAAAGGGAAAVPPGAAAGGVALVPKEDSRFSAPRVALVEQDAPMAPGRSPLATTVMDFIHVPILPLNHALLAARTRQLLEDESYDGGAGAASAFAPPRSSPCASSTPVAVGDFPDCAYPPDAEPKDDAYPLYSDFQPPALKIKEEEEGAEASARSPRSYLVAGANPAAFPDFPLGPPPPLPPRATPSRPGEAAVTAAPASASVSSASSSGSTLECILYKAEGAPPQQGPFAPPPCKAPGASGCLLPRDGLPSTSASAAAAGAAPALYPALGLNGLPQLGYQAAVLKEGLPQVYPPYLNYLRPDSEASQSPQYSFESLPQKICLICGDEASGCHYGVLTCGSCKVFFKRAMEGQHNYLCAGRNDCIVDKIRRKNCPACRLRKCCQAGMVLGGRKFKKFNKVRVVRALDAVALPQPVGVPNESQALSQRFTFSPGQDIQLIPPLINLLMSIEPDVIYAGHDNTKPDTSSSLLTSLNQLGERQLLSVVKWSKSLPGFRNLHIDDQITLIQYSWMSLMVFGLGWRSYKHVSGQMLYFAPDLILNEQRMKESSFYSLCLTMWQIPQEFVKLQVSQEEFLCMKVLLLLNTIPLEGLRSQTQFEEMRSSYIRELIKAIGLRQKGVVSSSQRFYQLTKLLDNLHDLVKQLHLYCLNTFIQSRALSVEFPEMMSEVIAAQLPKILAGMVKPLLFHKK
Compound,interference with transcriptional activity of PR [3],inhibition of DHT-induced transactivation of T877A mutant AR (PSA-luc) [1],agonism of AR T877A mutant (PSA-luc) [1],agonism of AR H874Y mutant [2],inhibition of DHT-induced transactivation of H874Y mutant AR (PSA-luc) [2],effect on PR transcriptional activation (MMTV-luc) [3]
O=C(Nc1cccc(C(F)(F)F)c1)Nc1ccc([N+](=O)[O-])c(C(F)(F)F)c1 [Compound 442],,dose-dependently suppressed; also recorded: dose-dependently inhibit,non-agonist,non-agonist,dose-dependently suppressed; also recorded: dose-dependently inhibit,
N#Cc1ccc(NC(=O)Nc2cccc(C(F)(F)F)c2)cc1C(F)(F)F [Compound 467],,dose-dependently suppressed; also recorded: dose-dependently inhibit,non-agonist,non-agonist,dose-dependently suppressed; also recorded: dose-dependently inhibit,
N#Cc1ccc(NC(=O)Nc2cccc(C(F)(F)F)c2)cc1Cl [Compound 492],,dose-dependently suppressed; also recorded: dose-dependently inhibit,non-agonist,non-agonist,dose-dependently suppressed; also recorded: dose-dependently inhibit,
O=C(N/C=C/c1cccc(C(F)(F)F)c1)Nc1ccncn1 [Compound 562],do not interfere,inhibit,,,inhibit,do not interfere; also recorded: selective towards the AR

# More lines, main results first:
interference with transcriptional activity of PR [3],Compound,inhibition of DHT-induced transactivation of T877A mutant AR (PSA-luc) [1],agonism of AR T877A mutant (PSA-luc) [1],agonism of AR H874Y mutant [2],inhibition of DHT-induced transactivation of H874Y mutant AR (PSA-luc) [2],effect on PR transcriptional activation (MMTV-luc) [3]
do not interfere,O=C(Nc1ccc(Br)nc1)Nc1cc(C(F)(F)F)cc(C(F)(F)F)c1 [Compound 566],,,,,do not interfere
do not interfere,O=C(Nc1cccc(C(F)(F)F)c1)Nc1ccc(NC(=O)c2ccccc2F)c(C(F)(F)F)c1 [Compound 746],inhibit,,,inhibit,do not interfere; also recorded: selective towards the AR
